# Reference: patent US8318801B2, “Cinnamic compounds and derivatives therefrom for the inhibition of histone deacetylase” (Naturewise Biotech & Medicals Corporation, priority 2009, dated 2012)
# “Also recorded” adds a separate entry of the source.
# How the values were obtained:
# [1] = tested on: tumor cell lines; settings: cited from earlier work
# [2] = tested on: Human glioma Hs683 cells; assay: Inhibition of cancer cell growth; format: cell-based; settings: Hs683 cells, 1.0, 2.0 and 4.0 μg/mL, 72 hours (FIG. 8)
# Experimental: Their results were counted by a trypan blue exclusion assay (see FIG. 8(e)).
# (§1) Five cancer cell lines, Rat C6 giloma cells, Human breast cancer MCF-7 cells, Human glioma Hs683 cells, Human glioblastoma 05-MG cells, and Human lung cancer A549 cells, were cultured in Dulbecco's modified Eagle's medium (DMEM; Gibco) containing 10% fetal bovine serum (FBS) and 1% penicillin/streptomycin, and were kept at 37° C. in a humidified atmosphere of 95% air and 5% CO2. Human breast cancer. MDA-MB-231 cells were cultured in L-15 medium (Gibco) containing 10% fetal bovine serum (FBS), 1% penicillin/streptomycin, and 2 mM glutamine, and were maintained at 37° C. in a humidified atmosphere of 95% air and 0% CO2. For these experiments, the cells were seeded in 6-well plates or a 60-mm dish. After 24 hours, the cells were treated with different concentrations of the various compounds. […] Human glioblastoma 05-MG cells were treated with NBM-C-BCX-OS01 (1.0, 2.0, 4.0 μg/mL) and NBM-C-BMX-OS01 (1.0, 2.0, 4.0 μg/mL) for 72 hours (see FIG. 5(e)). […] The results were counted by a trypan blue exclusion assay (see FIG. 6(b)).
# [3] = tested on: human breast cancer MDA-MB-231 cells; assay: Inhibition of cancer cell growth and change of morphology; format: cell-based; settings: for inhibition of MDA-MB-231 cells: MDA-MB-231 cells (FIG. 9); for change of cell morphology / inhibition of cell growth: MDA-MB-231 cells; for change of cell morphology: 72 hours (FIG. 6(a)); for inhibition of cell growth: various concentrations, 72 hrs (FIG. 6(a))
# Experimental: Their results were counted by a trypan blue exclusion assay (see FIG. 9(f)).
# as §1
# [4] = tested on: Human breast cancer MCF-7 cells; assay: Cell cycle analysis by flow cytometry; format: cell-based; settings: MCF-7 cells (FIG. 10(c) to (e))
# [5] = tested on: Human lung cancer A549 cells; assay: Cell cycle analysis by flow cytometry (propidium iodide); format: cell-based; settings: A549 cells (FIG. 10(a), (b))
# Experimental: Human lung cancer A549 cells, Human glioma Hs683 cells and Human glioblastoma 05-MG cells were seeded 1×10^6 cells in a 100-mm dish. After 24 hours of incubation in DMEM+10% BSA, Human lung cancer A549 cells were treated with NBM-HB-OS01 (2.5, 5.0, 7.5, 10.0 μg/mL) for 24 hours and were treated with NBM-C-BCX-OS01 (2.5, 5.0, 7.5 μg/mL) and NBM-C-BMX-OS01 (2.5, 5, 7.5 μg/mL) for 72 hours. Human glioblastoma 05-MG cells were treated with NBM-C-BCX-OS01 (1.0, 2.0, 4.0 μg/mL) and NBM-C-BMX-OS01 (1.0, 2.0, 4.0 μg/mL) for 72 hours. Human glioma Hs683 cells were treated with NBM-C-BCX-OS01 (1.0, 2.0, 4.0 μg/mL). For cell cycle analysis, cells were fixed in 80% ethanol for 1 hour (or overnight) at −20° C. and then incubated with 2 μg/mL RNase A for 30 minutes at 37° C. Cells were stained with propidium iodide ([…] PI) in PBS and analyzed using a Becton Dickinson flow cytometer, BD FACScan and CellQuest acquisition and analysis programs. […] Human glioma Hs683 cells were treated with NBM-C-BCX-OS01 (1.0, 2.0, 4.0 μg/mL) for 72 hours.
# [6] = tested on: Rat C6 glioma cells; assay: Inhibition of cancer cell growth and change of morphology; format: cell-based; settings: Rat C6 glioma cells
# Experimental: (§2) Three cancer cell lines, Rat C6 giloma cells, Human breast cancer MCF-7 cells, and Human lung cancer A549 cells, were cultured in Dulbecco's modified Eagle's medium (DMEM; Gibco) containing 10% fetal bovine serum (FBS) and 1% penicillin/streptomycin. All three cell lines were maintained at 37° C. in a humidified atmosphere of 95% air and 5% CO2. For the experiments, the cells were seeded in 6-well plates. After 24 hours, the cells were treated with different concentrations of the various compounds.
# as §1
# [7] = tested on: acetyl-Histone H3, acetyl-Histone H4, acetyl-tubulin, p21, CTPS, Gelsolin, Hsp90, acetyl-Hsp90 in Human glioma Hs683 cells; assay: Immunoblotting of histones and HDAC associated proteins; format: cell-based; settings: Hs683 cells, 1.0, 2.0, 4.0 μg/mL
# Experimental: Human glioma Hs683 cells were seeded at 5×10^5 cells in a 60-mm dish or 1×10^6 cells in a 100-mm dish. After 24 hours, Human glioma Hs683 cells were treated with different doses of NBM-C-BCX-OS01, NBM-C-BMX-OS01 (1.0, 2.0, 4.0 μg/mL), and vorinostat (SAHA, 5 μM) for 72 hours. Lysates of Hs683 cells were prepared for the immunoblotting of acetyl-Histone H3 (Cell Signaling Technology, Inc.), acetyl-Histone H4 (Upstate), acetyl-tubulin (Sigma Chemical Co.), p21 (BD Pharmingen Technology, Inc.), CTPS (ABNOVA TAIWAN Corporation), Gelsolin (Sigma Chemical Co.), Hsp90 (Cell Signaling Technology, Inc.), acetyl-Hsp90 (ROCKLAND, Inc.) and actin (Sigma Chemical Co.). Proteins were detected by chemiluminescence (ECL, Amersham). […] SAHA was used as a positive control and β-actin as an internal control (see FIG. 7(b)).
# [8] = tested on: Human lung cancer A549 cells; assay: Inhibition of cancer cell growth; format: cell-based; settings: 72 hrs, NBM-C-BX-OS01 7.5, others 2.5, 5.0, 7.5 μg/mL (FIG. 5(b))
# Experimental: as §2, §1
# [9] = tested on: Human glioblastoma 05-MG cells; assay: Inhibition of cancer cell growth; format: cell-based; settings: 05-MG cells, 1.0, 2.0, 4.0 μg/mL, 72 hrs (FIG. 5(e))
# Experimental: as §1
structure (smiles),measurement,setting,value
Cc1[nH]c2ccccc2c1CCNCc1ccc(/C=C/C(=O)NO)cc1 [LBH589],growth inhibition and regression by triggering apoptosis,[1],induces growth inhibition and regression
"COc1ccc(/C=C\C(=O)NO)c(OCc2ccc(Br)cc2)c1CC=C(C)C [NBM-C-BBX-OS01, (Z)-2-(4-Bromobenzoxy)-3-prenyl-4-methoxy-N-hydroxycinamide]",inhibition of cell growth,[2],inhibition of cell growth
same,inhibition of MDA-MB-231 cells,[3],inhibition of human breast cancer MDA-MB-231 cells
same,cell cycle arrest phase,[4],arrested the human breast cancer MCF-7 cells on the S and G2/M phases
same,cell cycle arrest phase,[5],arrested the human lung cancer A549 cells on the S and G2/M phases
"COc1ccc(/C=C/C(=O)Nc2ccccc2N)c(OCc2ccc(Cl)cc2)c1CC=C(C)C [NBM-C-BCA-OS01, (E)-2-(4-Chlorobenzoxy)-3-prenyl-4-methoxy-N-(2-aminophenyl) cinamide]",inhibition of cell growth,"[6]; 7.5 μg/mL, 48 hrs (FIG. 4)",inhibited the Rat C6 glioma cell growth
same,inhibition of cell growth,"[6]; 7.5 μg/mL, 48 hrs (FIG. 4), listed as NBM-C-BA-OS01 (17d)",inhibited the Rat C6 glioma cells growth
"COc1ccc(/C=C\C(=O)NO)c(OCc2ccc(F)cc2)c1CC=C(C)C [NBM-C-BFX-OS01, (Z)-2-(4-Fluorobenzoxy)-3-prenyl-4-methoxy-N-hydroxycinamide]",change of cell morphology,[3],changed the morphology of the cells
same,inhibition of cell growth,[3],inhibition of the cell growth of human breast cancer MDA-MB-231 cells was observed; also recorded: inhibited the growth
"COc1ccc(COc2c(/C=C/C(=O)Nc3ccccc3N)ccc(OC)c2CC=C(C)C)cc1 [NBM-C-BMA-OS01, (E)-2-(4-Methoxyhenzoxy)-3-prenyl-4-methoxy-N-(2-aminophenyl) cinamide]",inhibition of cell growth,"[6]; 7.5 μg/mL, 48 hrs (FIG. 4)",inhibited the Rat C6 glioma cell growth
"COc1ccc(COc2c(/C=C\C(=O)NO)ccc(OC)c2CC=C(C)C)cc1 [NBM-C-BMX-OS01, (Z)-2-(4-Methoxyhenzoxy)-3-prenyl-4-methoxy-N-hydroxycinamide]",inhibition of cell growth,"[6]; 24 hrs, NBM-C-BA-OS01 5 μg/mL, others 2.5, 5.0 μg/mL (FIG. 5(a))",inhibited the cell growth
same,"inhibition of cell growth, similar to dose-dependent A549 result","[6]; various concentrations, 24 hrs (FIG. 5(c))",the results were similar
same,CTPS protein level,[7]; 72 hrs (FIG. 7(a)),decreased in a dose-dependent manner
same,Hsp90 protein level,[7]; 72 hrs (FIG. 7(a)),decreased in a dose-dependent manner
same,induction (increase) of acetylated Hsp90 protein,[7]; 72 hrs (FIG. 7(a)),detected in a dose-dependent manner; also recorded: observed in a dose-dependent manner
same,induction (increase) of gelsolin protein,[7]; 72 hrs (FIG. 7(a)),detected in a dose-dependent manner; also recorded: observed in a dose-dependent manner
same,expression of acetylated Histone H3,[7]; 72 hrs (FIG. 7(b)),significantly increased in a dose-dependent manner; also recorded: induced in a dose-dependent manner
same,expression of acetylated Histone H4,[7]; 72 hrs (FIG. 7(b)),significantly increased in a dose-dependent manner; also recorded: induced in a dose-dependent manner
same,expression of acetylated tubulin,[7]; 72 hrs (FIG. 7(b)),significantly increased in a dose-dependent manner; also recorded: induced in a dose-dependent manner
same,expression of p21,[7]; 72 hrs (FIG. 7(b)),significantly increased in a dose-dependent manner; also recorded: induced in a dose-dependent manner
same,change of cell morphology,[3],changed the morphology of the cells
same,inhibition of cell growth,[3],inhibition of the cell growth of human breast cancer MDA-MB-231 cells was observed; also recorded: inhibited the growth
same,cell growth inhibition,[8],induced A549 cells growth inhibition in a dose-dependent manner; also recorded: induced A549 cell growth inhibition in dose-dependent amounts
same,cell growth inhibition,[9],Cell growth inhibition was observed
CC(C)=CCOc1c(OCc2ccc(Cl)cc2)c(/C=C\C(=O)NO)cc2ccoc12 [NBM-I-BCX-OS01],inhibition of cell growth,[2],inhibition of cell growth
same,inhibition of MDA-MB-231 cells,[3],inhibition of human breast cancer MDA-MB-231 cells
same,cell cycle arrest phase,[4],arrested the human breast cancer MCF-7 cells on the S and G2/M phases
same,cell cycle arrest phase,[5],arrested the human lung cancer A549 cells on the S and G2/M phases
"COc1ccc(/C=C/C(=O)NO)c(OCc2ccc(Br)cc2)c1CC=C(C)C [NBM-T-BBX-OS01, (E)-2-(4-Bromobenzoxy)-3-prenyl-4-methoxy-N-hydroxy cinamide]",inhibition of cell growth,[2],inhibition of cell growth
same,inhibition of MDA-MB-231 cells,[3],inhibition of human breast cancer MDA-MB-231 cells
same,cell cycle arrest phase,[4],arrested the human breast cancer MCF-7 cells on the S and G2/M phases
same,cell cycle arrest phase,[5],arrested the human lung cancer A549 cells on the S and G2/M phases
"COc1ccc(/C=C/C(=O)NO)c(OCc2ccc(Cl)cc2)c1CC=C(C)C [NBM-T-BCX-OS01, (E)-2-(4-Chlorobenzoxy)-3-prenyl-4-methoxy-N-hydroxy cinamide]",inhibition of cell growth,[2],inhibition of cell growth
same,inhibition of MDA-MB-231 cells,[3],inhibition of human breast cancer MDA-MB-231 cells
same,cell cycle arrest phase,[4],arrested the human breast cancer MCF-7 cells on the S and G2/M phases
"COc1ccc(COc2c(/C=C/C(=O)NO)ccc(OC)c2CC=C(C)C)cc1 [NBM-T-BMX-OS01, (E)-2-(4-Methoxyhenzoxy)-3-prenyl-4-methoxy-N-hydroxy cinamide]",inhibition of cell growth,[2],inhibition of cell growth
same,inhibition of MDA-MB-231 cells,[3],inhibition of human breast cancer MDA-MB-231 cells
same,cell cycle arrest phase,[4],arrested the human breast cancer MCF-7 cells on the S and G2/M phases
same,cell cycle arrest phase,[5],arrested the human lung cancer A549 cells on the S and G2/M phases
